The test system of this assay is L-NAME-treated renin transgenic rats (TGR(mRen2)27). The experiment in a line: L-NAME-treated transgenic renin rat (TGR(mRen2)27): mortality and proteinuria. Conditions: finerenone 10 mg/kg od, compound of the formula (X) 0.3 mg/kg od, alone or combined; for All-cause mortality during the study period / Survival rate over the study period: L-NAME-treated TGR(mRen2)27 renin rats, daily gavage; for All-cause mortality during the study period: 15 animals per group, placebo mortality 40%; for Survival rate over the study period: study terminated after 40% of placebo animals had died; for Reduction of proteinuria, measured as protein/creatinine quotient in urine / Protein/creatine quotient - % of group A (proteinuria in % reduction from placebo): L-NAME-treated renin transgenic rats; for Reduction of proteinuria, measured as protein/creatinine quotient in urine: versus placebo; for Protein/creatine quotient - % of group A (proteinuria in % reduction from placebo): urine, end of the study, mean ± SEM, relative to placebo group A. It counts as in vivo. The text has this:
3.) L-NAME-treated transgenic renin rat (TGR(mRen2)27)
The transgenic renin rat ‘TGR(mRen2)27’ is a hypertensive rat line developed by Mullins and Ganten which overexpresses the Ren-2 gene of the mouse. Additional administration of the nitrogen monoxide synthase inhibitor L-NAME induces endothelial dysfunction which increases morbidity and mortality in this model. Unless subjected to life-long antihypertensive therapy, homozygous animals die of secondary complications such as heart and kidney failure or stroke.
Male TGR(mRen2)27 renin rats aged 10 to 20 weeks are randomized to different pharmacological treatment groups and a placebo group. In addition, the nitrogen monoxide synthase inhibitor L-NAME is administered via the drinking water in a concentration of 30 to 100 mg/l. During the entire experiment, drinking water and feed are available ad libitum to the animals. The substances are administered via the feed or daily by gavage for 4-10 weeks. Animals treated in the same way but receiving either only the solvent or the feed without test substance serve as placebo group. During the experiment, the systolic blood pressure is determined at regular intervals using a tail cuff, and proteinuria and urine electrolyte composition are determined by collecting the urine in metabolic cages. At the end of the experiment, haemodynamic parameters (blood pressure, heart rate, inotropism [dp/dt], relaxation time [tau], maximum left ventricular pressure, left ventricular end-diastolic pressure [LVEDP]) are measured, and the weights of heart, kidney and lung are determined, protein elimination and biomarkers (e.g. ANP, RIA Kit RK 005-24, Phoenix Pharmaceuticals, Inc., USA, cGMP, RIA Kit RE29075, IBL International GmbH, Hamburg, Germany, renin, angiotensin I, RIA Kit CA-1533, DiaSorin S.p.A., Italy, and aldosterone, P2714, DiaSorin S.p.A., Italy) and gene expression of biomarkers by RT/TaqMan PCR following RNA isolation from cardiac and renal tissue are determined.
Cardiac and cardiovascular disorders as well as renal and cardiorenal disorders are characterized by high patient morbidity and also high mortality. This morbidity and mortality, together with various risk factors such as hypertension, can be reproduced very accurately in the above-described animal model of the L-NAME-treated renin transgenic rat. Therefore, this animal model, for example, was used to investigate MR antagonists such as, for example, finerenone according to the compound of the formula (IV) and sGC stimulators such as, for example, the compound of the formula (X), and combinations of both: […]
For example, the MR antagonist finerenone, corresponding to the compound of the formula (IV), and the sGC stimulator, corresponding to the compound of the formula (X), were tested on their own and in combinations in TGR(mRen2)27 renin rats aged 10 to 20 weeks. In addition, the nitrogen monoxide synthase inhibitor L-NAME was administered via the drinking water in a concentration of 30 to 100 mg/l. During the entire experiment, drinking water and feed were available ad libitum to the animals. The substances were administered daily by gavage for 4-10 weeks. Animals treated in the same way but receiving only the solvent for the test substance served as placebo group. In the test series, in addition to placebo (group A), the MR antagonist finerenone corresponding to the compound of the formula (IV) (10 mg/kg od) (group B) and the sGC stimulator corresponding to the compound of the formula (X) (0.3 mg/kg od) (group C) on their own and a combination of finerenone corresponding to the compound of the formula (IV) (10 mg/kg od)+compound of the formula (X) (0.3 mg/kg od) (group D) were administered. In this study, 15 animals were used per group (A, B, C, D) (Table 1): […]

With `COC(=O)Nc1c(N)nc(-c2nn(Cc3ccccc3F)c3ncc(F)cc23)nc1N` [compound of the formula (X), methyl {4,6-diamino-2-[5-fluoro-1-(2-fluorobenzyl)-1H-pyrazolo[3,4-b]pyridin-3-yl]pyrimidin-5-yl}carbamate], the “All-cause mortality during the study period” value amounted to 13%; the “Survival rate over the study period” value is recorded as 87%; the “Reduction of proteinuria, measured as protein/creatinine quotient in urine” value amounted to 51%; the “Protein/creatine quotient - % of group A (proteinuria in % reduction from placebo)” value was −51 + 20%.
For the molecule `CCOc1ncc(C)c2c1[C@H](c1ccc(C#N)cc1OC)C(C(N)=O)=C(C)N2` [finerenone, (S)-4-(4-cyano-2-methoxyphenyl)-5-ethoxy-2,8-dimethyl-1,4-dihydro-1,6-naphthyridine-3-carboxamide], the “All-cause mortality during the study period” value is listed as 20%; the “Survival rate over the study period” value stood at 80%; the “Reduction of proteinuria, measured as protein/creatinine quotient in urine” value came out at 58%; the “Protein/creatine quotient - % of group A (proteinuria in % reduction from placebo)” value is −58 + 16%.

The values are drawn from patent publication US11684621B2, “Combination containing sGC stimulators and mineralocorticoid receptor antagonists” (Bayer Pharma Aktiengesellschaft, priority 2016, dated 2023).
